Biological target: T1, Q46 protein aggregates (Homo sapiens, UniProt P42858)
T1 construct: fused on or other part: GST at the N-terminus, cut off with thrombin before the test to start aggregation; The wells held aggregated Q46 without GST
Test: Q46 radioligand binding assay (RBA)
Details: 10 nM ligand [3H3]MK-3328
Description: Q46 Radioligand Binding Assay
For radioligand binding assays (RBA) GST-Q46 protein was generated based on a previous publication (Scherzinger et al. Cell, Vol. 90, 549-558, Aug. 8, 1997). For experiments 33 μM GST-Q46 was incubated with 150 μg/mL thrombin in assay buffer (150 mM NaCl, 50 mM Tris pH 8.0) and 2 mM CaCl2 for 16 hours at 37° C. Aggregated Q46 was pelleted by centrifugation for 5 minutes at 13,000 rpm in a bench top centrifuge and re-dissolved in the same volume of assay buffer. Test compounds were prepared by titration in DMSO at 11 concentrations from 33 μM to 1 nM. For the RBA, Q46 protein aggregates and test compounds were pre-incubated in assay buffer for 20 minutes at room temperature, in 140 μL/well in a 96-well plate (pp, round bottom). Then, ligand was added in 10 μL/well and incubated for 60 minutes at 37° C. Final assay concentrations were 1 μM to 30 pM test compound, 5 μM Q46 protein (equivalent monomer concentration) and 10 nM ligand [^3H3]MK-3328 (Harrision et al., ACS Med. Chem. Lett., 2 (2011), pp 498-502). Samples were transferred onto GF/B filter plates and washed 2× with 200 μL PBS using a Filtermate Harvester. After drying filter plates for 1 hour at 37° C., the back of the plates were sealed with foil and 30 μL/well scintillation fluid (Packard MicroScint 40) added, incubated for 15 minutes in the dark and counted in a TopCount reader. For analysis, replicate data from independent assay plates were normalized towards 0% and 100% inhibition using control wells of vehicle (0% inhibition) and 3 μM unlabelled MK-3328 (100% inhibition). IC50 values were determined with a sigmoidal inhibition model with four variables (top, bottom, slope, IC50) in a global fit using the normalized replicate data.

T1 sequence (P42858 with tags, fused parts or gaps with the stated changes, form open): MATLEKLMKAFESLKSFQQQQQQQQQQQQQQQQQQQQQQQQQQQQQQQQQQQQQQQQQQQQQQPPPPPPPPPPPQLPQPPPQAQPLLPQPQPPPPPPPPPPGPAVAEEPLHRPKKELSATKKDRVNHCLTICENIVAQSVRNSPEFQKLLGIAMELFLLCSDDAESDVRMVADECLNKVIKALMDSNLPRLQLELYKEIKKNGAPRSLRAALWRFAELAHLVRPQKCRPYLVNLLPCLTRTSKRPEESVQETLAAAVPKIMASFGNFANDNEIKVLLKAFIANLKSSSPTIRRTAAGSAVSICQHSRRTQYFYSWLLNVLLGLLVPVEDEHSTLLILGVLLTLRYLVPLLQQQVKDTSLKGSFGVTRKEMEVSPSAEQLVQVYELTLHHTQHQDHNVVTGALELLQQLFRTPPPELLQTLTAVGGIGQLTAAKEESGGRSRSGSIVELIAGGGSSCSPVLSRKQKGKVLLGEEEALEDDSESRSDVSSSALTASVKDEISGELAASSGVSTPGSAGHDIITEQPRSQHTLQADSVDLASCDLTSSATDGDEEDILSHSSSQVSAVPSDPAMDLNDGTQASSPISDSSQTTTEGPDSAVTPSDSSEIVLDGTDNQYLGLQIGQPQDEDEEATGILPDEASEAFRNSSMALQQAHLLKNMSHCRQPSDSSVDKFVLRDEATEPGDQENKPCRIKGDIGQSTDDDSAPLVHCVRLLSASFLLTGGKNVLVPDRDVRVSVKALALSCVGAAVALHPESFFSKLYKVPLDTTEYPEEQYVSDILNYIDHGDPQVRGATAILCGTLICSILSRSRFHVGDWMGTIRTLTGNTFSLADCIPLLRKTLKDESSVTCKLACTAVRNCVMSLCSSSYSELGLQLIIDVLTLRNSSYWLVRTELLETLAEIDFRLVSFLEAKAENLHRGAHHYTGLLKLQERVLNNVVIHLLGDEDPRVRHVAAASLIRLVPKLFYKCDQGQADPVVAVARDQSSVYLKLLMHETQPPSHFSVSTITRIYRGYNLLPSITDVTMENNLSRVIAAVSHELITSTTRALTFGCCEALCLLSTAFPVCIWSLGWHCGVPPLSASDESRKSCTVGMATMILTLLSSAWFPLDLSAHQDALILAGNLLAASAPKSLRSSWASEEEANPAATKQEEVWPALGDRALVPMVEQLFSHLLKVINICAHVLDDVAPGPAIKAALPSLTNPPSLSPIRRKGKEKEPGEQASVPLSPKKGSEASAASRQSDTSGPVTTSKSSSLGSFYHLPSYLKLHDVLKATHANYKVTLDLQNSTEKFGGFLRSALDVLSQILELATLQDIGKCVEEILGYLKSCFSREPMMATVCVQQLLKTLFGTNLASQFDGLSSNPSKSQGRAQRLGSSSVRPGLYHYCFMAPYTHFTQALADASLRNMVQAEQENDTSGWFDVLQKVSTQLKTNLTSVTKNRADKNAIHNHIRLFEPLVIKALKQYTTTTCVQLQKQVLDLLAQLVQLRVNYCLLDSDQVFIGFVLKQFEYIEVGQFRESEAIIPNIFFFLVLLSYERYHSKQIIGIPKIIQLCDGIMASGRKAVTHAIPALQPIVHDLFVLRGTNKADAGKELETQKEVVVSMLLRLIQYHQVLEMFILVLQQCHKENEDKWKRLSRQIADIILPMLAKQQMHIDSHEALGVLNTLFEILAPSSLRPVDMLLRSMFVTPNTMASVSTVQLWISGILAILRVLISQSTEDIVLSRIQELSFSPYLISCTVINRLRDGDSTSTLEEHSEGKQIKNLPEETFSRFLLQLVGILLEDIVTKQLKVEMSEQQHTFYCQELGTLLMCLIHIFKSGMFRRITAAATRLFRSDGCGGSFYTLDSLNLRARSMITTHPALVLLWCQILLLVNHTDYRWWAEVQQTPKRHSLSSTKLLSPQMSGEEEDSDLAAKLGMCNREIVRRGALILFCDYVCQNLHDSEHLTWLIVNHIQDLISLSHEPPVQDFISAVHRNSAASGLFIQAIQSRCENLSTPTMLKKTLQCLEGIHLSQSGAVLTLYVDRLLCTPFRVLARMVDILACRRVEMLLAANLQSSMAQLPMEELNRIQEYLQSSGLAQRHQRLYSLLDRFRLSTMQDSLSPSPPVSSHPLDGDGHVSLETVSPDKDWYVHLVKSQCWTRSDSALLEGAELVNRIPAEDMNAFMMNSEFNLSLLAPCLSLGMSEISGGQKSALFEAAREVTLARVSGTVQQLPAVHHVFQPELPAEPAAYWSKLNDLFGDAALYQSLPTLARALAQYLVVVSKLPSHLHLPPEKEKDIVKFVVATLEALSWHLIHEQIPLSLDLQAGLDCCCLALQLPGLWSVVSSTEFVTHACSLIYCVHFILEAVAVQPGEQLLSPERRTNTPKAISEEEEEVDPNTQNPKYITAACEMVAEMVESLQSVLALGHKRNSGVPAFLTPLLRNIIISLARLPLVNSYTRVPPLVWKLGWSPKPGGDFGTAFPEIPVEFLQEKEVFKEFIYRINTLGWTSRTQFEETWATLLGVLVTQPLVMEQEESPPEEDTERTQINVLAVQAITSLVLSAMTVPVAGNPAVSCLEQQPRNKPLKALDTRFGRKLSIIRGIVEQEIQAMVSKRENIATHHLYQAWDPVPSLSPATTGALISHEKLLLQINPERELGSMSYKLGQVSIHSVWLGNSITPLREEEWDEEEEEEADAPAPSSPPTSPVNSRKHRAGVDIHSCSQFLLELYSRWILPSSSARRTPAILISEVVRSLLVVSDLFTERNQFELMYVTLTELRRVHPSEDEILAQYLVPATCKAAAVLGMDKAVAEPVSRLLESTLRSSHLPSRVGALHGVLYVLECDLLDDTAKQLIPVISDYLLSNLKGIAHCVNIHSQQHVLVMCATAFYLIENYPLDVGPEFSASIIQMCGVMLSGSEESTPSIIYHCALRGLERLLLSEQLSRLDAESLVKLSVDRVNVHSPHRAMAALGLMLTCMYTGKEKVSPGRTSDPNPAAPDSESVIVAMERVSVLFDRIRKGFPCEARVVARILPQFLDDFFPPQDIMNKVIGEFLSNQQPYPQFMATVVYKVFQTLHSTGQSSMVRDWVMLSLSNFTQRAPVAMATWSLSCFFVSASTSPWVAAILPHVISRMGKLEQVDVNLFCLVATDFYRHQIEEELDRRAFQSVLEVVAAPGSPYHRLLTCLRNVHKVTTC

| SMILES | IC50 |
| --- | --- |
| Cn1nc(COc2cnc3oc(-c4cccnc4)nc3c2)ccc1=O [2-methyl-6-({[2-(pyridin-3-yl)-[1,3]oxazolo[5,4-b]pyridin-6-yl]oxy}methyl)-2,3-dihydropyridazin-3-one] | 100 to 500 nM |
| Brc1ccc(COc2cnc3oc(-c4cccnc4)nc3c2)nc1 [3-{6-[(5-bromopyridin-2-yl)methoxy]-[1,3]oxazolo[5,4-b]pyridin-2-yl}pyridine] | < 100 nM |
| COCCOc1cnc(-c2ccc3oc(-c4cccnc4)nc3c2)nc1 [5-[5-(2-methoxyethoxy)pyrimidin-2-yl]-2-(pyridin-3-yl)-1,3-benzoxazole] | < 100 nM |
| COc1cnc(COc2ccc3c(c2)nc(-c2cccnc2)n3C)cn1 [5-[(5-methoxypyrazin-2-yl)methoxy]-1-methyl-2-(pyridin-3-yl)-1H-1,3-benzodiazole] | 100 to 500 nM |
| COc1ccc(COc2ccc3oc(C4Cc5ccccc5O4)nc3c2)nc1 (centres unmarked) [2-(2,3-dihydro-1-benzofuran-2-yl)-5-[(5-methoxypyridin-2-yl)methoxy]-1,3-benzoxazole] | < 100 nM |
| COc1ccc(COc2ccc3oc(-c4ccncc4C#N)cc3c2)nc1 [4-{5-[(5-methoxypyridin-2-yl)methoxy]-1-benzofuran-2-yl}pyridine-3-carbonitrile] | < 100 nM |
| c1cncc(-c2nc3cc(Nc4ccncn4)ccc3o2)c1 [2-(pyridin-3-yl)-N-(pyrimidin-4-yl)-1,3-benzoxazol-5-amine] | < 100 nM |
| Cn1cc(COc2ccc3oc(-c4cccnc4)nc3c2)cn1 [5-[(1-methyl-1H-pyrazol-4-yl)methoxy]-2-(pyridin-3-yl)-1,3-benzoxazole] | 100 to 500 nM |
| COc1ccc(COc2ccc3oc(-c4ccc5ccccc5n4)nc3c2)nc1 [2-{5-[(5-methoxypyridin-2-yl)methoxy]-1,3-benzoxazol-2-yl}quinoline] | < 100 nM |
| COc1ccnc(C(=O)Nc2ccc3oc(-c4cccnc4)nc3c2)c1 [4-methoxy-N-[2-(pyridin-3-yl)-1,3-benzoxazol-5-yl]pyridine-2-carboxamide] | < 100 nM |
| N#Cc1cnccc1-c1cc2cc(OCc3cn[nH]c3)ccc2o1 [4-[5-(1H-pyrazol-4-ylmethoxy)-1-benzofuran-2-yl]pyridine-3-carbonitrile] | < 100 nM |
| COc1cnc(-c2ccc3oc(-c4cccnc4)nc3c2)cn1 [5-(5-methoxypyrazin-2-yl)-2-(pyridin-3-yl)-1,3-benzoxazole] | < 100 nM |
| c1cncc(-c2nc3cc(Nc4nnc5ccccn45)ccc3o2)c1 [2-(pyridin-3-yl)-N-{[1,2,4]triazolo[4,3-a]pyridin-3-yl}-1,3-benzoxazol-5-amine] | < 100 nM |
| COc1ccc(COc2cnc3oc(-c4cccnc4)nc3c2)cn1 [3-{6-[(6-methoxypyridin-3-yl)methoxy]-[1,3]oxazolo[5,4-b]pyridin-2-yl}pyridine] | < 100 nM |
| O=C(Nc1ccc2oc(-c3cccnc3)nc2c1)c1cccc(Oc2ccccc2)c1 [3-phenoxy-N-[2-(pyridin-3-yl)-1,3-benzoxazol-5-yl]benzamide] | < 100 nM |
| COc1ccc(COc2ccc3oc(-c4ccncc4)cc3c2)nc1 [4-{5-[(5-methoxypyridin-2-yl)methoxy]-1-benzofuran-2-yl}pyridine] | < 100 nM |
| c1ccc(COc2ccc3oc(-c4cccnc4)nc3c2)nc1 [5-(pyridin-2-ylmethoxy)-2-(pyridin-3-yl)-1,3-benzoxazole] | 100 to 500 nM |
| COc1ccc(C#Cc2cnc3oc(-c4cccnc4)nc3c2)cc1 [3-{6-[2-(4-methoxyphenyl)ethynyl]-[1,3]oxazolo[5,4-b]pyridin-2-yl}pyridine] | < 100 nM |
| COc1ccc(COc2ccc3oc(N4CCn5ccnc5C4)nc3c2)nc1 [2-{5H,6H,7H,8H-imidazo[1,2-a]pyrazin-7-yl}-5-[(5-methoxypyridin-2-yl)methoxy]-1,3-benzoxazole] | < 100 nM |
| Cn1cc(-c2ccc3oc(-c4cccnc4)nc3c2)cn1 [5-(1-methyl-1H-pyrazol-4-yl)-2-(pyridin-3-yl)-1,3-benzoxazole] | 100 to 500 nM |
| N#Cc1cnccc1-c1cc2cc(OCc3cncnc3)ccc2o1 [4-[5-(pyrimidin-5-ylmethoxy)-1-benzofuran-2-yl]pyridine-3-carbonitrile] | < 100 nM |
| COc1ncc(-c2ccc3oc(-c4cccnc4)nc3c2)cn1 [5-(2-methoxypyrimidin-5-yl)-2-(pyridin-3-yl)-1,3-benzoxazole] | 100 to 500 nM |
| COc1ccc(COc2ccc3oc(-n4ccnc4)nc3c2)nc1 [2-(1H-imidazol-1-yl)-5-[(5-methoxypyridin-2-yl)methoxy]-1,3-benzoxazole] | < 100 nM |

Further lines, results first:

| IC50 | SMILES |
| --- | --- |
| < 100 nM | CNC(=O)c1ccc(-c2nc3cc(OCc4ccc(O)cn4)ccc3o2)cn1 [5-{5-[(5-hydroxypyridin-2-yl)methoxy]-1,3-benzoxazol-2-yl}-N-methylpyridine-2-carboxamide] |
| < 100 nM | COc1ccc(COc2ccc3oc(-c4ccc(=O)[nH]c4)nc3c2)nc1 [5-{5-[(5-methoxypyridin-2-yl)methoxy]-1,3-benzoxazol-2-yl}-1,2-dihydropyridin-2-one] |
| < 100 nM | COc1ccc(COC(=O)Nc2ccc3oc(-c4cccnc4)nc3c2)nc1 [(5-methoxypyridin-2-yl)methyl N-[2-(pyridin-3-yl)-1,3-benzoxazol-5-yl]carbamate] |
| < 100 nM | COc1ccc(COc2ccc3oc(N4Cc5cccnc5C4)nc3c2)nc1 [5-[(5-methoxypyridin-2-yl)methoxy]-2-{5H,6H,7H-pyrrolo[3,4-b]pyridin-6-yl}-1,3-benzoxazole] |
| < 100 nM | COc1cncc(C(=O)Nc2ccc3oc(-c4cccnc4)nc3c2)c1 [5-methoxy-N-[2-(pyridin-3-yl)-1,3-benzoxazol-5-yl]pyridine-3-carboxamide] |
| < 100 nM | CNC(=O)c1ccc(-c2nc3cc(OCc4ccc(OC)cn4)ccc3o2)c[n+]1[O-] [5-{5-[(5-methoxypyridin-2-yl)methoxy]-1,3-benzoxazol-2-yl}-2-(methylcarbamoyl)pyridin-1-ium-1-olate] |
| < 100 nM | O=C(Nc1ccc2oc(-c3cccnc3)nc2c1)c1ccc2nccnc2c1 [N-[2-(pyridin-3-yl)-1,3-benzoxazol-5-yl]quinoxaline-6-carboxamide] |
| < 100 nM | COc1ccc(COc2ccc3oc(-c4ccc(-c5ncccn5)cc4)nc3c2)nc1 [5-[(5-methoxypyridin-2-yl)methoxy]-2-[4-(pyrimidin-2-yl)phenyl]-1,3-benzoxazole] |
| < 100 nM | COc1ccc(COc2ccc3oc(-c4ccnnc4)nc3c2)nc1 [5-[(5-methoxypyridin-2-yl)methoxy]-2-(pyridazin-4-yl)-1,3-benzoxazole] |
| < 100 nM | CNCc1cccc(-c2nc3cc(OCc4ccc(OC)cn4)ccc3o2)c1 [[(3-{5-[(5-methoxypyridin-2-yl)methoxy]-1,3-benzoxazol-2-yl}phenyl)methyl](methyl)amine] |
| < 100 nM | O=C(Nc1ccc2oc(-c3cccnc3)nc2c1)c1cc2ccccc2o1 [N-[2-(pyridin-3-yl)-1,3-benzoxazol-5-yl]-1-benzofuran-2-carboxamide] |
| < 100 nM | COc1ccc(CNc2ccc3oc(-c4cccnc4)nc3c2)cc1 [N-[(4-methoxyphenyl)methyl]-2-(pyridin-3-yl)-1,3-benzoxazol-5-amine] |
| < 100 nM | O=C(Nc1ccc2oc(-c3ccccc3)nc2c1)c1ccccc1 [N-(2-phenyl-1,3-benzoxazol-5-yl)benzamide] |
| < 100 nM | COc1ccc(COc2ccc3oc(-c4cnccn4)nc3c2)nc1 [5-[(5-methoxypyridin-2-yl)methoxy]-2-(pyrazin-2-yl)-1,3-benzoxazole] |
| < 100 nM | COc1ccc(COc2ccc3oc(-c4cncs4)nc3c2)nc1 [5-[(5-methoxypyridin-2-yl)methoxy]-2-(1,3-thiazol-5-yl)-1,3-benzoxazole] |
| < 100 nM | COc1ccc(COc2ccc3oc(-c4cccc(CN(C)C)c4)nc3c2)nc1 [[(3-{5-[(5-methoxypyridin-2-yl)methoxy]-1,3-benzoxazol-2-yl}phenyl)methyl]dimethylamine] |
| < 100 nM | COc1cccc(C(=O)Nc2ccc3oc(-c4cccnc4)nc3c2)n1 [6-methoxy-N-[2-(pyridin-3-yl)-1,3-benzoxazol-5-yl]pyridine-2-carboxamide] |
| < 100 nM | COc1ccc2c(c1)CN(c1cnc3oc(-c4cccnc4)nc3c1)C2=O [5-methoxy-2-[2-(pyridin-3-yl)-[1,3]oxazolo[5,4-b]pyridin-6-yl]-2,3-dihydro-1H-isoindol-1-one] |
| 100 to 500 nM | CNCc1ccc(COc2ccc3oc(-c4cccnc4)nc3c2)cc1 [methyl({[4-({[2-(pyridin-3-yl)-1,3-benzoxazol-5-yl]oxy}methyl)phenyl]methyl})amine] |
| < 100 nM | CNC(=O)c1ccc(-c2nc3cc(OCc4ccc(OC)cn4)cnc3o2)cn1 [5-{6-[(5-methoxypyridin-2-yl)methoxy]-[1,3]oxazolo[5,4-b]pyridin-2-yl}-N-methylpyridine-2-carboxamide] |
| < 100 nM | O=C(Nc1ccc2oc(-c3cccnc3)nc2c1)c1ccc2occc2c1 [N-[2-(pyridin-3-yl)-1,3-benzoxazol-5-yl]-1-benzofuran-5-carboxamide] |

Reference: US12258355B2, “Probes for imaging huntingtin protein” (CHDI Foundation, Inc., priority 2014, dated 2025)
